From patent US11098040B2, “Compounds and methods of use” (Ferro Therapeutics, Inc., priority 2018, dated 2021)

Assays:
KP4 = experiment: Cell viability assay (CellTiter Glo), pancreatic ductal adenocarcinoma KP4; assay type: cell-based, human; conditions: Homo sapiens, KP-4, 96 h, pancreatic cancer cell line KP4, 96 hours, CellTiter Glo; read-out: IC50 μM KP4
Experimental: (§1) Cell viability assay was performed to assess the potency of the compounds in human cancer cell lines KP4 (pancreatic ductal adenocarcinoma), MiaPaCa-2 (pancreatic carcinoma), AsPC-1 (pancreatic adenocarcinoma, ascites), 143B (osteosarcoma), and SJSA-1 (osteosarcoma). Selected compounds were also assayed in a human breast epithelial cell line MCF-10A, a nontumorigenic cell line as a control to assess differential activity. Cells at a density of 500-5,000 cells/well were seeded in 96-well plates and incubated at 37° C. overnight. A series of 9 different concentrations of compound stocks (500×) were created by 3-fold serial dilution in DMSO. These compounds were further diluted in culture media and then added to cells so that the final DMSO concentration was equal to 0.25% or less. After 96 hours of incubation, 50 μL of CellTiter Glo reagent (Promega) was added to each well and luminescence was measured after 10 minutes using EnVision (PerkinElmer). Compounds titrated from top concentration of up to 30 μM. The select compounds were tested initially from 30 μM as the top concentration in duplicates (range of 4.6 nM-30 μM). […] Luminescence from cells treated with DMSO alone was set as Max and % of inhibition was calculated as follows: Inhibition %=(Max-Sample value)/Max*100. Data was analyzed using XL-fit software (ID Business Solutions Ltd.). IC50, relative IC50, or % of top inhibition was calculated.
as §1, with “in” for “in human”, “line” for “lines”, “adenocarcinoma).” for “adenocarcinoma), MiaPaCa-2 (pancreatic carcinoma), AsPC-1 (pancreatic adenocarcinoma, ascites), 143B (osteosarcoma), and SJSA-1 (osteosarcoma). Selected compounds were also assayed in a human breast epithelial cell line MCF-10A, a nontumorigenic cell line as a control to assess differential activity.”, “1,000-10,000” for “500-5,000”, “All” for “Compounds titrated from top concentration of up to 30 μM. The select”
(§2) The results of the assay on stability in blood and IC50 values for pancreatic cancer cell line KP4 are given below in Table 24.

[1] = Whole blood stability, mouse; assay type: in vitro ADME
From the text: as §2

[2] = Whole blood stability, human; assay type: in vitro ADME
From the text: as §2

| Structure (SMILES) | IC50 (KP4) | Whole Blood Stability % Remaining at 37° C. Mouse ([1]; 0 min) | Whole Blood Stability % Remaining at 37° C. Mouse ([1]; 30 min) | Whole Blood Stability % Remaining at 37° C. Mouse ([1]; 60 min) | Whole Blood Stability % Remaining at 37° C. Human ([2]; 0 min) | Whole Blood Stability % Remaining at 37° C. Human ([2]; 30 min) | Whole Blood Stability % Remaining at 37° C. Human ([2]; 60 min) |
| --- | --- | --- | --- | --- | --- | --- | --- |
| CN(C)C(=O)c1ccc([C@H]2c3sc4ccccc4c3C[C@H](C(=O)N(C)C)N2C(=O)CCl)cc1 [Compound 55] | 0.1 to 0.5 µM | 100.0% | 51.4% | 24.6% | 100.0% | 50.6% | 20.6% |
| C[C@H]1Cc2c([nH]c3ccccc23)[C@@H](c2ccc(C(=O)NC34CC(C3)C4)cc2)N1C(=O)CCl [Compound 111] | 0.5 to 1 µM | 100.0% | 79.2% | 87.7% | 100.0% | 96.1% | 68.1% |
| COC(=O)[C@H]1Cc2c([nH]c3ccccc23)[C@H](c2ccc(OC(C)=O)cc2)N1C(=O)CCl [Compound 12] | 0.01 to 0.1 µM | 100.0% | 0.0% | 0.0% | 100.0% | 0.0% | 0.1% |
| C#CCOC(=O)c1ccc([C@@H]2c3[nH]c4ccccc4c3C[C@H](C(=O)OC)N2C(=O)CCl)cc1 [BXa] | 0.01 to 0.1 µM | 100.0% | 0.0% | 0.0% | 100.0% | 95.7% | 46.8% |
| CC(C)(C)OC(=O)c1ccc([C@H]2c3[nH]c4ccccc4c3C[C@H](CO)N2C(=O)CCl)cc1 [Example 63a] | > 1 µM | 100.0% | 4.5% | 0.0% | 100.0% | 35.0% | 13.2% |
| COC(=O)[C@H]1Cc2c([nH]c3ccccc23)[C@@H](c2ccc(OC(=O)C(C)(C)C)cc2)N1C(=O)CCl [Compound 13a] | 0.5 to 1 µM | 100.0% | 0.0% | 0.0% | 100.0% | 56.6% | 59.9% |
| COC(=O)[C@H]1Cc2c([nH]c3ccccc23)[C@H](c2ccc(C(=O)OC(C)(C)C)cc2)N1C(=O)C(C)Cl (stereo partly shown) [Compound 33] | > 1 µM | 100.0% | 78.9% | 69.3% | 100.0% | 104.7% | 103.8% |
| COC(=O)[C@H]1Cc2c([nH]c3ccccc23)[C@@H](c2ccc(S(=O)(=O)N(C)C)cc2)N1C(=O)CCl [Compound 23a] | > 1 µM | 100.0% | 83.8% | 78.6% | 100.0% | 83.2% | 72.7% |
| CC(=O)Nc1ccc([C@H]2c3[nH]c4ccccc4c3C[C@H](C(=O)N(C)C)N2C(=O)CCl)cc1 [Compound 71] | > 1 µM | 100.0% | 90.4% | 75.5% | 100.0% | 80.4% | 59.3% |
| CC(C)(C)OC(=O)c1ccc([C@H]2c3[nH]c4ccccc4c3C[C@H](C(=O)OC(C)(C)C)N2C(=O)CCl)cc1 [Compound 19] | < 0.01 µM | 100.0% | 44.5% | 21.2% | 100.0% | 44.4% | 35.6% |

Now from value to compound:

| IC50 (KP4) | Whole Blood Stability % Remaining at 37° C. Mouse ([1]; 0 min) | Whole Blood Stability % Remaining at 37° C. Mouse ([1]; 30 min) | Whole Blood Stability % Remaining at 37° C. Mouse ([1]; 60 min) | Whole Blood Stability % Remaining at 37° C. Human ([2]; 0 min) | Whole Blood Stability % Remaining at 37° C. Human ([2]; 30 min) | Whole Blood Stability % Remaining at 37° C. Human ([2]; 60 min) | Structure (SMILES) |
| --- | --- | --- | --- | --- | --- | --- | --- |
| < 0.01 µM | 100.0% | 0.0% | 0.0% | 100.0% | 58.2% | 29.0% | C=CCOC(=O)c1ccc([C@H]2c3[nH]c4ccccc4c3C[C@H](C(=O)OC)N2C(=O)CCl)cc1 [Compound 74] |
| < 0.01 µM | 100.0% | 34.2% | 0.0% | 100.0% | 72.9% | 44.0% | C[C@H]1Cc2c([nH]c3ccc(C#N)cc23)[C@H](c2ccc(N3CCOCC3)cc2)N1C(=O)CCl [Compound 115] |
| < 0.01 µM | 100.0% | 61.9% | 51.1% | 100.0% | 67.3% | 49.2% | COC(=O)[C@H]1Cc2c([nH]c3ccccc23)[C@H](c2ccc(N[C@]34CC5C[C@H](C[C@H](C5)C3)C4)cc2)N1C(=O)CCl [Compound 29] |
| < 0.01 µM | 100.0% | 68.7% | 69.3% | 100.0% | 58.3% | 44.6% | C[C@H]1Cc2c([nH]c3ccccc23)[C@H](c2ccc(C3CCOCC3)cc2)N1C(=O)CCl [Compound 112] |
| < 0.01 µM | 100.0% | 87.2% | 90.1% | 100.0% | 96.3% | 75.6% | C[C@H]1Cc2c([nH]c3ccccc23)[C@H](c2ccc(C(=O)N[C@]34CC5C[C@H](C[C@H](C5)C3)C4)cc2)N1C(=O)CCl [Compound 102] |
| < 0.01 µM | 100.0% | 59.3% | 0.0% | 100.0% | 88.1% | 50.8% | C[C@H]1Cc2c([nH]c3ccc(F)cc23)[C@H](c2ccc(N3CCOCC3)cc2)N1C(=O)CCl [Compound 114] |
